Literature values in US20030180387A1, “Method for increasing the antioxidative potential of selenium-containing aqueous solutions” (priority 2000, published 2003).
Read-outs that look alike come from different tables or passages of the source.

Compound: O=[Se](O)O [selenite]
- Eo, standard redox potential (acidic environment): −0.740 (acidic environment) Volt
- Eo, standard redox potential (basic environment): +0.366 (basic environment) Volt
